Counter-ions that a name gives are not always drawn.
Tests used:
[1] = system: spontaneously hypertensive rats of the Okamoto strain; test: Reduction of mean arterial blood pressure in spontaneously hypertensive rats; format: in vivo, rat; details: second identical dose at 24 h, measured at 28 h, male SHR, average MABP 160±1.5 mm of mercury
Experimental: These compounds were tested for hypotensive activity by the method of P. S. Chan and D. W. Poorvin, Clinical and Experimental Hypertension, 1 (6), 817-830 (1979). Male, 16 week old, spontaneously hypertensive rats of the Okamoto strain having an average mean arterial blood pressure of 160±1.5 mm of mercury are used in the test. One to three rats are used per test compound. The test compound is suspended in 2% pre-boiled starch at a concentration of 50 mg/ml, and a rat is dosed by gavage at a dose of 100 mg/kg of body weight or less, with 0.9% sodium chloride loading at a dose of 25 ml/kg of body weight. A second identical dose of the test compound, without sodium chloride loading, is given 24 hours later. At 28 hours after the initial dose the mean arterial blood pressure is measured by the method of Chan and Poorvin vide supra. The procedure is repeated in a second and third rat when necessary.

[2] = target: T1, [^3 H]-imipramine receptor (human platelet membranes) (Homo sapiens, UniProt P31645); test: Inhibition of [^3 H]-imipramine binding to human platelet membranes; details: 10 μm test compound, 90 minutes at 0° C., duplicate, more than 50% considered active; for inhibition at 10 µM: 1.5 h
T1 construct: Platelet membranes were obtained using the procedure described by Wennogle, L. P., et al; tissue New York Blood Center; host or cells: human platelets (washed, sonicated membranes)
Experimental: The activity of the compounds of this invention as antidepressant agents was verified in the following test which measures the ability of a test compound to inhibit [^3 H]-imipramine binding to human platelet membranes.
Platelet membranes were obtained using the procedure described by Wennogle, L. P., et al., Pharmac. Biochem Behav., 15, 975 (1981). Fresh human platelet concentrates(less than 48 hours old) were obtained from the New York Blood Center. These concentrates were prepared in a citrate-dextrose anticoagulant using standard techniques. Platelets were washed twice by centrifugation (2500 x G, 10 minutes) in 50 volumes of an antiprotease buffer containing 0.005M potassium chloride, 0.12M sodium chloride, 0.05M Tris pH 7.5, 0.025 Units/ml aprotinin, 0.5 μg/m pepstatin, […] bacitracin, 3 mM ethylenediaminetetraacetic acid and 1.0 mM ethylene glycol-bis(β-aminoethyl ether)-N,N'-tetraacetic acid. […] All procedures were conducted at 0° C. using plastic laboratory ware throughout the platelet membrane preparation. Platelets were resuspended in 20 volumes of buffer and sonicated 3 times using 10 second bursts of a Branson sonifier (cell disrupter 350) at setting 6 (standard 3/4 inch horn), keeping the sample on ice throughout the procedure. Platelet membranes were then washed twice at 18,000 x G for 20 minutes with 50 volumes of the antiprotease buffer and resuspended to 3.0 mg protein/ml using the Bradford protein analysis with bovine gamma globulin as standard. Membranes were used immediately or stored frozen in liquid nitrogen.
The displacement of [^3 H]-imipramine binding to human platelet membranes was performed essentially as described by Paul, S. M., et al , Life Sci., 26, 953 (1980) with the following modifications. Membranes (0.3 mg protein) were suspended in antiprotease buffer with both […] [^3 H]-imipramine (New England Nuclear) and displacing drug or buffer in a total volume of 250 μl in glass test tubes. Samples were incubated for 90 minutes at 0° C., then diluted to 5 ml in […] sodium chloride, 0.005M potassium chloride, 0.05 Tris pH 7.5 (wash buffer) and immediately filtered through GF/B Whatman Filters and washed twice with 5 ml of wash buffer. Filters were counted in a liquid scintillation counter after addition of Beckman Hp Scintillant.
Non-specific binding of [^3 H]-imipramine was defined as that fraction (generally 35%) of radioactivity that was not displaced by 10 μm desmethylimipramine. Specific binding was determined by subtraction of this non-specific level from values for total [^3 H]-imipramine binding which were measured by incubating [^3 H]-imipramine in the absence of displacing drug. Compounds were tested in duplicate test tubes at a concentration of 10 μm. Compounds which inhibited binding by more than 50% were considered to be active.

T1 sequence (P31645 whole entry): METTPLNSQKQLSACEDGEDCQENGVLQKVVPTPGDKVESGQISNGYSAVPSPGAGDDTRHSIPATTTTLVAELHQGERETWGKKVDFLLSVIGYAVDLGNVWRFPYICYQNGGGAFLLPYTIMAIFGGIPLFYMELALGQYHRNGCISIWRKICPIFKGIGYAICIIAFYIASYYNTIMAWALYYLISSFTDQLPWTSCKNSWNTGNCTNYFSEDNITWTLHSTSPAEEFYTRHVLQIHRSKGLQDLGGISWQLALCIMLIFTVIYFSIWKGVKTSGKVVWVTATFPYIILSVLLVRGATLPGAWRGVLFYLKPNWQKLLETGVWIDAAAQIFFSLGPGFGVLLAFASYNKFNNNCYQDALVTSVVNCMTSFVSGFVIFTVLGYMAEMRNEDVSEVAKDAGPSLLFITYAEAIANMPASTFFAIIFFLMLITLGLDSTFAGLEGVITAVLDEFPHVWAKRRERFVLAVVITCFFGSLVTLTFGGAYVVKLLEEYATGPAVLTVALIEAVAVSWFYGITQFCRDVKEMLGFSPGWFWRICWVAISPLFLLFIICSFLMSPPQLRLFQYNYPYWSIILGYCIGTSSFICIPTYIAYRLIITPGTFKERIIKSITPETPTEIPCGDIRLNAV

SMILES	MABP/mm Hg (mean arterial blood pressure) ([1]; 100 mg/kg by gavage) [mm Hg]	inhibition at 10 µM [2] [%]	other results
N#Cc1ncn2c1N(C(=O)CN1CCN(CCCOc3ccccc3)CC1)CC=C2c1cccc(C(F)(F)F)c1 [Example 9, 1,2-Dihydro-1-[[4-(3-phenoxypropyl)-1-piperazinyl]acetyl]-4-[3-(trifluoromethyl)phenyl]imidazo[1,5-a]pyrimidine-8-carbonitrile]	130	50	–
COc1cccc(CN2CCN(CC(=O)N3CC=C(c4cccc(C(F)(F)F)c4)n4cnc(C#N)c43)CC2)c1 [Example 6, 1,2-Dihydro-1-[[4-[(3-methoxyphenyl)methyl]-1-piperazinyl]acetyl]-4-[3-trifluoromethyl)phenyl]imidazo[1,5-a]pyrimidine-8-carbonitrile, dihydrochloride]	–	75	–
COc1cccc(CN2CCN(CC(=O)N3CC=C(c4cccc(C(F)(F)F)c4)n4cnc(C#N)c43)CC2)c1 [Example 5, 1,2-Dihydro-1-[[4-[(3-methoxyphenyl)methyl]-1-piperazinyl]acetyl]-4-[3-(trifluoromethyl)phenyl]imidazo[1,5-a]pyrimidine-8-carbonitrile]	–	–	% Inhibition of [^3 H]-imipramine binding [2]: 81%
C#CCN1CCN(CC(=O)N2CC=C(c3cccc(C(F)(F)F)c3)n3cnc(C#N)c32)CC1.Cl.Cl [Example 14, 1,2-Dihydro-1-[[4-(2-propynyl)-1-piperazinyl]acetyl]-4-[3-(trifluoromethyl)phenyl]imidazo[1,5-a]pyrimidine-8-carbonitrile, dihydrochloride]	129	–	–
N#Cc1ncn2c1N(C(=O)CCN1CCN(CCCOc3ccccc3)CC1)CC=C2c1cccc(C(F)(F)F)c1 [Example 21, 1,2-Dihydro-1-[1-oxo-3-[4-(3-phenoxypropyl)-1-piperazinyl]propyl]-4-[3-(trifluoromethyl)phenyl]imidazo[1,5-a]pyrimidine-8-carbonitrile]	–	66	–
N#Cc1ncn2c1N(C(=O)CN1CCN(C(c3ccccc3)c3ccc(Cl)cc3)CC1)CC=C2c1cccc(C(F)(F)F)c1 (stereo not shown) [Example 10, 1-[[4-[(4-Chlorophenyl)phenylmethyl]-1-piperazinyl]acetyl]-1,2-dihydro-4-[3-(trifluoromethyl)phenyl]imidazo[1,5-a]pyrimidine-8-carbonitrile]	137	–	–
N#Cc1ncn2c1N(C(=O)CCN1CCN(c3ccccc3)CC1)CC=C2c1cccc(C(F)(F)F)c1 [Example 17, 1,2-Dihydro-1-[1-oxo-3-(4-phenyl-1-piperazinyl]propyl]-4-[3-(trifluoromethyl)phenyl]imidazo[1,5-a]pyrimidine-8-carbonitrile]	115	–	–
COc1ccc(Cl)cc1NCC(=O)N1CC=C(c2cccc(C(F)(F)F)c2)n2cnc(C#N)c21 [1-[[(5-Chloro-2-methoxyphenyl)amino]acetyl]-1,2-dihydro-4-[3-(trifluoromethyl)phenyl]imidazo[1,5-a]pyrimidine-8-carbonitrile]	135	–	–
N#Cc1ncn2c1N(C(=O)CN1CCN(c3ccc(Cl)cc3)CC1)CC=C2c1cccc(C(F)(F)F)c1 [Example 13, 1-[[4-(4-Chlorophenyl)-1-piperazinyl]acetyl]-1,2-dihydro-4-[3-(trifluoromethyl)phenyl]imidazo[1,5-a]pyrimidine-8-carbonitrile]	137	–	–
CCOC(=O)N1CCN(CCC(=O)N2CC=C(c3cccc(C(F)(F)F)c3)n3cnc(C#N)c32)CC1.Cl [Example 19, 4-[3-[8-Cyano-4-[3-(trifluoromethyl)phenyl]imidazo[1,5-a]pyrimidine-1(2H)-yl]-3-oxopropyl]-1-piperazinecarboxylic acid, ethyl ester monohydrochloride]	134	–	–
N#Cc1ncn2c1N(C(=O)CCN1CCN(c3ccc(Cl)cc3)CC1)CC=C2c1cccc(C(F)(F)F)c1 [Example 18, 1-[3-[4-(4-Chlorophenyl)-1-piperazinyl]-1-oxopropyl]-1,2-dihydro-4-[3-(trifluoromethyl)phenyl]imidazo[1,5-a]pyrimidine-8-carbonitrile]	118	53	–
N#Cc1ncn2c1N(C(=O)CCN1CCN(Cc3ccccc3)CC1)CC=C2c1cccc(C(F)(F)F)c1 [Example 22, 1,2-Dihydro-1-[1-oxo-3-[(4-phenylmethyl)-1-piperazinyl]propyl]-4-[3-(trifluoromethyl)phenyl]imidazo[1,5-a]pyrimidine-8-carbonitrile]	–	61	–
N#Cc1ncn2c1N(C(=O)CCN1CCN(Cc3ccc(Cl)cc3)CC1)CC=C2c1cccc(C(F)(F)F)c1 [Example 20, 1-[3-[4-[(4-Chlorophenyl)methyl]-1-piperazinyl]-1-oxopropyl]-1,2-dihydro-4-[3-(trifluoromethyl)phenyl]imidazo[1,5-a]pyrimidine-8-carbonitrile]	128	75	–
N#Cc1ncn2c1N(C(=O)CCN1CCN(Cc3c(Cl)cccc3Cl)CC1)CC=C2c1cccc(C(F)(F)F)c1 [Example 23, 1-[4-[4-[(2,6-Dichlorophenyl)methyl]-1-piperazinyl]-1-oxopropyl]-1,2-dihydro-4-[3-(trifluoromethyl)phenyl]imidazo[1,5-a]pyrimidine-8-carbonitrile]	–	98	–
N#Cc1ncn2c1N(C(=O)CN1CCC(c3ccccc3)CC1)CC=C2c1cccc(C(F)(F)F)c1 [Example 25, 1,2-Dihydro-1-[(4-phenyl-1-piperidinyl)acetyl]-4-[3-(trifluoromethyl)phenyl]imidazo[1,5-a]pyrimidine-8-carbonitrile]	137	–	–
CC(C)N1CCN(CCC(=O)N2CC=C(c3cccc(C(F)(F)F)c3)n3cnc(C#N)c32)CC1 [Example 24, 1,2-Dihydro-1-[3-[4-(1-methylethyl)-1-piperazinyl]-1-oxopropyl]-4-[3-(trifluoromethyl)phenyl]imidazo[1,5-a]pyrimidine-8-carbonitrile]	–	–	MABP/mm Hg (mean arterial blood pressure) ([1]; 50 mg/kg by gavage): 133 mm Hg
N#Cc1ncn2c1N(C(=O)CCN1CCN(c3ccc(F)cc3)CC1)CC=C2c1cccc(C(F)(F)F)c1 [Example 16, 1-[3-[4-(4-Fluorophenyl)-1-piperazinyl]-1-oxopropyl]-1,2-dihydro-4-[3-(trifluoromethyl)phenyl]imidazo[1,5-a]pyrimidine-8-carbonitrile]	110	78	–
N#Cc1ncn2c1N(C(=O)CN1CCN(Cc3ccc(Cl)cc3)CC1)CC=C2c1cccc(C(F)(F)F)c1 [Example 11, 1-[[4-[(4-Chlorophenyl)methyl]-1-piperazinyl]acetyl]-1,2-dihydro-4-[3-(trifluoromethyl)phenyl]imidazo[1,5-a]pyrimidine-8-carbonitrile]	–	93	–

From US4963552A, “1-substitute-1,2-dihydro-4-((substituted)phenyl)imidazo-[1,5-a] pyrimidine-8-carbonitriles” (American Cyanamid Company, priority 1989, dated 1990)
